Measurements as given in the supplement of paper PMC10307832.

Legend:
Assay in all cases: relative viability (nuclei count vs DMSO), 5 days (fraction); higher = more cells survive
Wnt-C59 + Bortezomib = compound: CC1=NC=CC(=C1)C2=CC=C(C=C2)CC(=O)NC3=CC=C(C=C3)C4=CN=CC=C4 [Wnt-C59] + CC(C)C[C@H](NC(=O)[C@H](Cc1ccccc1)NC(=O)c1cnccn1)B(O)O [Bortezomib] (partner 0.002 µM)
Summary of the method: (§1)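 Relative viability was taken as the ratio of nuclei in treated wells to nuclei in vehicle wells. Lung cancer cell lines in 1536-well plates received compounds by pin tool one day after seeding, either one drug alone or a fixed anchor-drug dose plus five library-drug doses (not always all listed) in √10 steps. Nuclei were counted on 4× images after 5 days of treatment, and values are medians of duplicate plates.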

Wnt-C59 + Foretinib = compound: CC1=NC=CC(=C1)C2=CC=C(C=C2)CC(=O)NC3=CC=C(C=C3)C4=CN=CC=C4 [Wnt-C59] + COc1cc2c(Oc3ccc(NC(=O)C4(C(=O)Nc5ccc(F)cc5)CC4)cc3F)ccnc2cc1OCCCN1CCOCC1 [Foretinib] (partner 0.25 µM)
Summary of the method: as §1

Wnt-C59 + Pemetrexed = compound: CC1=NC=CC(=C1)C2=CC=C(C=C2)CC(=O)NC3=CC=C(C=C3)C4=CN=CC=C4 [Wnt-C59] + Nc1nc2[nH]cc(CCc3ccc(C(=O)N[C@@H](CCC(=O)O)C(=O)O)cc3)c2c(=O)[nH]1 [Pemetrexed] (partner 0.2 µM)
Summary of the method: as §1

Lapatinib + Bortezomib = compound: CS(=O)(=O)CCNCc1ccc(-c2ccc3ncnc(Nc4ccc(OCc5cccc(F)c5)c(Cl)c4)c3c2)o1 [Lapatinib] + CC(C)C[C@H](NC(=O)[C@H](Cc1ccccc1)NC(=O)c1cnccn1)B(O)O [Bortezomib] (partner 0.002 µM)
Summary of the method: as §1

Cell Line | relative viability (Wnt-C59 + Bortezomib; first compound 0.001 µM) | relative viability (Wnt-C59 + Bortezomib; first compound 0.01 µM) | relative viability (Wnt-C59 + Bortezomib; first compound 0.03162 µM) | relative viability (Wnt-C59 + Bortezomib; first compound 0.1 µM) | relative viability (Wnt-C59 + Foretinib; first compound 0.001 µM) | relative viability (Wnt-C59 + Foretinib; first compound 0.01 µM) | relative viability (Wnt-C59 + Foretinib; first compound 0.03162 µM) | relative viability (Wnt-C59 + Foretinib; first compound 0.1 µM) | relative viability (Wnt-C59 + Pemetrexed; first compound 0.001 µM) | relative viability (Wnt-C59 + Pemetrexed; first compound 0.01 µM) | relative viability (Wnt-C59 + Pemetrexed; first compound 0.03162 µM) | relative viability (Wnt-C59 + Pemetrexed; first compound 0.1 µM) | relative viability (Lapatinib + Bortezomib; first compound 0.06325 µM) | relative viability (Lapatinib + Bortezomib; first compound 0.2 µM) | relative viability (Lapatinib + Bortezomib; first compound 0.6325 µM) | relative viability (Lapatinib + Bortezomib; first compound 2 µM) | relative viability (Lapatinib + Bortezomib; first compound 0.02 µM)
PC-3 [JPC-3] | 0.874 | 0.782 | 0.881 | 0.856 | 1.05 | 1.12 | 1.14 | 1.05 | 1.11 | 1.24 | 1.04 | 1.47 | 0.796 | 0.818 | 0.864 | 0.837 | 
SK-MES-1 |  |  |  |  | 0.974 | 0.81 | 0.905 | 0.918 | 0.92 | 0.982 | 0.986 | 0.827 |  |  |  |  | 
Calu-6 | 0.924 | 0.99 | 1.05 | 1.07 | 0.856 | 0.903 | 0.936 | 0.834 |  |  |  |  | 0.951 | 1.03 | 1.02 | 0.906 | 0.887
NCI-H838 | 0.905 | 0.655 | 0.739 | 0.754 | 1.04 | 0.961 | 1.08 | 1.03 | 0.235 | 0.24 | 0.267 | 0.242 | 0.461 | 0.843 | 0.829 | 0.674 | 1.08
NCI-H2009 | 1.07 | 1.06 | 1.03 | 0.993 | 1.26 | 1.21 | 1.22 | 0.819 | 0.988 | 1.11 | 1.07 | 1.04 | 0.968 | 1.06 | 1.04 | 1.08 | 0.754
NCI-H647 | 1.06 | 1.02 | 0.842 | 1.06 | 1.24 | 0.978 | 1.36 | 1.18 | 0.162 | 0.158 | 0.201 | 0.178 | 0.708 | 1.11 | 1.13 | 0.871 | 0.909
NCI-H1993 | 1.14 | 1.12 | 1.21 | 1.2 | 0.81 |  | 0.987 | 0.706 | 0.67 | 0.591 | 0.609 | 0.625 |  | 0.871 | 0.889 | 0.627 | 0.88
LCLC-97TM1 | 0.608 | 0.878 | 0.761 | 0.919 | 1.03 | 0.949 | 1.03 | 0.896 | 0.169 | 0.181 | 0.18 | 0.183 |  | 0.515 | 0.74 | 0.819 | 
EKVX | 1 | 0.928 | 1.06 | 0.895 | 0.763 | 0.725 | 0.833 | 0.714 | 0.376 |  | 0.367 | 0.361 | 0.862 | 0.914 | 0.634 | 0.161 | 0.888
NCI-H596 | 0.837 | 1.08 | 1.12 |  | 0.885 | 0.899 | 0.835 | 0.898 | 0.533 | 0.569 | 0.483 | 0.479 | 1.04 | 0.964 | 1.03 | 0.776 | 1.17
NCI-H1975 | 0.297 | 0.372 | 0.461 | 0.37 | 0.819 | 0.891 | 0.942 | 0.906 | 0.321 | 0.307 | 0.288 | 0.311 | 0.358 | 0.407 | 0.405 | 0.32 | 0.467
A549 |  |  |  |  | 1.09 | 0.969 | 0.974 | 0.906 |  |  |  |  |  |  |  |  | 
HCC-78 | 0.571 | 0.515 | 0.609 | 0.422 | 0.496 | 0.511 | 0.518 | 0.515 | 0.913 | 0.883 | 0.907 | 0.934 |  | 0.463 | 0.407 | 0.297 | 0.546
H3255 | 0.78 | 0.823 | 0.769 | 0.912 | 0.944 | 0.892 | 1.12 | 0.951 | 0.598 | 0.553 | 0.583 | 0.554 | 0.735 | 0.581 | 0.575 | 0.395 | 0.633
HCC-44 | 0.948 | 0.886 | 0.903 | 0.887 |  |  |  |  | 0.619 | 0.647 | 0.64 | 0.629 | 0.855 | 0.901 | 0.953 | 0.8 | 0.762
NCI-H1648 |  |  |  |  |  |  |  |  | 0.615 | 0.922 | 0.81 | 0.66 |  |  |  |  | 
NCI-H1793 |  |  |  |  | 0.69 |  | 0.678 | 0.614 | 0.813 | 0.693 | 0.914 | 0.953 |  |  |  |  | 
SW 900 |  |  |  |  | 1.14 | 0.667 | 1.18 | 1.01 | 0.505 | 0.469 | 0.483 | 0.478 |  |  |  |  | 
NCI-H1792 | 0.959 | 0.963 | 1.04 | 0.946 |  |  |  |  | 0.723 | 0.714 | 0.777 | 1.18 | 0.718 | 0.922 | 0.923 | 1.02 | 0.892
NCI-H2342 |  |  |  |  | 1.06 | 1.16 | 1.18 | 1.07 | 0.758 | 0.773 | 0.892 | 0.777 |  |  |  |  | 
NCI-H1623 |  |  |  |  | 0.886 | 0.732 | 0.989 | 0.893 |  |  |  |  |  |  |  |  | 
ABC-1 | 0.266 | 0.171 | 0.33 | 0.306 | 0.982 | 1.16 | 1.07 | 0.97 |  |  |  |  | 0.362 | 0.324 | 0.434 | 0.333 | 
NCI-H2170 |  |  |  |  | 0.942 | 0.991 | 1.06 | 1.01 | 0.271 | 0.275 | 0.253 | 0.274 |  |  |  |  | 
NCI-H1944 |  |  |  |  | 1.02 | 0.701 | 0.841 | 0.867 | 0.615 | 0.594 | 0.639 | 0.602 |  |  |  |  | 
NCI-H1299 | 1.02 | 1.06 | 1.02 | 1.01 | 1.15 | 1.06 | 1.05 | 1.11 |  |  |  |  | 1.04 | 1.02 | 1.01 | 0.996 | 1.05
NCI-H727 | 0.948 | 0.782 | 0.951 | 1.08 | 0.983 | 0.917 | 0.887 | 0.904 |  |  |  |  | 0.78 | 1.04 | 1.09 | 0.801 | 0.758
